Results reported in US6852673B2, “Herbicidal pyridine compounds” (BASF Aktiengesellschaft, priority 1998, dated 2005).

Key:
Type in all cases: in vivo
[1] = system: Matricaria inodora (MATIN); test: Pre-emergence herbicidal evaluation, mayweed
Procedure, shortened: (§1)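 Seeds planted in potting soil, then pots sprayed pre-emergence with aqueous acetone solution of test compound at about 0.0125 to 0.4 kg/ha. Kept under standard greenhouse care; injury rated 2 to 4 weeks after treatment.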

[2] = system: Triticum aestivum (TRZAW); test: Post-emergence herbicidal evaluation, winter wheat; details: rated 2 to 4 weeks after treatment
Procedure, shortened: (§2)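 Post-emergence spray of test compound, from acetone solutions diluted in water, at about 0.03 to 0.4 kg/ha per pot, plants then kept under standard greenhouse conditions. Injury rated 2 to 4 weeks after treatment on a 0 (as untreated) to 9 (death) scale.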

[3] = system: Lamium purpureum (LAMPU); test: Post-emergence herbicidal evaluation, purple deadnettle; details: rated 2 to 4 weeks after treatment
Procedure, shortened: as §2

[4] = system: Ipomoea hederacea (IPOHE); test: Pre-emergence herbicidal evaluation, morning glory
Procedure, shortened: as §1

[5] = system: Ambrosia artemiisifolia (AMBEL); test: Pre-emergence herbicidal evaluation, ragweed
Procedure, shortened: as §1

[6] = system: Setaria viridis (SETVI); test: Pre-emergence herbicidal evaluation, green foxtail
Procedure, shortened: as §1

[7] = system: Oryza sativum (ORYSA); test: Post-emergence herbicidal evaluation, rice; details: rated 2 to 4 weeks after treatment
Procedure, shortened: as §2

[8] = system: Triticum aestivum (TRZAW); test: Pre-emergence herbicidal evaluation, winter wheat
Procedure, shortened: as §1

[9] = system: Lamium purpureum (LAMPU); test: Pre-emergence herbicidal evaluation, purple deadnettle
Procedure, shortened: as §1

[10] = system: Ambrosia artemiisifolia (AMBEL); test: Post-emergence herbicidal evaluation, ragweed; details: rated 2 to 4 weeks after treatment
Procedure, shortened: as §2

[11] = system: Abutilon theophrasti (ABUTH); test: Pre-emergence herbicidal evaluation, velvetleaf
Procedure, shortened: as §1

[12] = system: Zea mays (ZEAMX); test: Post-emergence herbicidal evaluation, maize; details: rated 2 to 4 weeks after treatment
Procedure, shortened: as §2

[13] = system: Hordeum vulgare (HORVW); test: Pre-emergence herbicidal evaluation, winter barley
Procedure, shortened: as §1

[14] = system: Solanum nigrum (SOLNI); test: Post-emergence herbicidal evaluation, black nightshade; details: rated 2 to 4 weeks after treatment
Procedure, shortened: as §2

[15] = system: Glycine max (GLXMA); test: Pre-emergence herbicidal evaluation, soyabeans
Procedure, shortened: as §1

[16] = system: Galium aparine (GALAP); test: Pre-emergence herbicidal evaluation, cleaver
Procedure, shortened: as §1

[17] = system: Oryza sativum (ORYSA); test: Pre-emergence herbicidal evaluation, rice
Procedure, shortened: as §1

[18] = system: Abutilon theophrasti (ABUTH); test: Post-emergence herbicidal evaluation, velvetleaf; details: rated 2 to 4 weeks after treatment
Procedure, shortened: as §2

[19] = system: Alopecurus myosuroides (ALOMY); test: Pre-emergence herbicidal evaluation, black grass
Procedure, shortened: as §1

[20] = system: Solanum nigrum (SOLNI); test: Pre-emergence herbicidal evaluation, black nightshade
Procedure, shortened: as §1

[21] = system: Ipomoea hederacea (IPOHE); test: Post-emergence herbicidal evaluation, morning glory; details: rated 2 to 4 weeks after treatment
Procedure, shortened: as §2

[22] = system: Glycine max (GLXMA); test: Post-emergence herbicidal evaluation, soyabeans; details: rated 2 to 4 weeks after treatment
Protocol: [table] [table] […] These acetone solutions are diluted with water and the resulting formulations applied at dosage levels equivalent of about 0.03 to 0.4 kg per hectare of test compound per pot. After spraying the plants are placed on greenhouse benches and are cared for in the usual manner, commensurate with conventional greenhouse practices. From 2 to 4 weeks after treatment, the seedling plants are examined and rated according to the rating system provided above. A rating 0 indicates growth as untreated control, a rating 9 indicates death.

[23] = system: Galium aparine (GALAP); test: Post-emergence herbicidal evaluation, cleaver; details: rated 2 to 4 weeks after treatment
Procedure, shortened: as §2

[24] = system: Echinochloa grus galli (ECHCG); test: Pre-emergence herbicidal evaluation, barnyard grass
Procedure, shortened: as §1

[25] = system: Matricaria inodora (MATIN); test: Post-emergence herbicidal evaluation, mayweed; details: rated 2 to 4 weeks after treatment
Procedure, shortened: as §2

[26] = system: Stellaria media (STEME); test: Post-emergence herbicidal evaluation, chickweed; details: rated 2 to 4 weeks after treatment
Procedure, shortened: as §2

Cc1cc(OC=CCC(F)(F)F)nc(Oc2cc(C(F)(F)F)nn2C)c1 [Example 2, 2-(1-Methyl-3-trifluoromethylpyrazol-5-yloxy)-4-methyl-6-(4,4,4-trifluorobut-1-enyloxy)pyridine]
3 (3 - Moderate effect): TRZAW rating ([2]; dose 0.1 kg/ha) | TRZAW rating ([2]; dose 0.4 kg/ha) | IPOHE rating ([4]; dose 0.025 kg/ha) | IPOHE rating ([4]; dose 0.1 kg/ha) | AMBEL rating ([5]; dose 0.025 kg/ha) | ORYSA rating ([7]; dose 0.1 kg/ha) | ORYSA rating ([7]; dose 0.4 kg/ha) | TRZAW rating ([8]; dose 0.4 kg/ha) | HORVW rating ([13]; dose 0.1 kg/ha) | ORYSA rating ([17]; dose 0.4 kg/ha)
1 (1 - Trace effect): IPOHE rating ([4]; dose 0.013 kg/ha) | AMBEL rating ([5]; dose 0.013 kg/ha) | TRZAW rating ([8]; dose 0.1 kg/ha) | ABUTH rating ([11]; dose 0.013 kg/ha) | GLXMA rating ([15]; dose 0.025 kg/ha) | ORYSA rating ([17]; dose 0.025 kg/ha) | ALOMY rating ([19]; dose 0.013 kg/ha) | ALOMY rating ([19]; dose 0.025 kg/ha) | SOLNI rating ([20]; dose 0.025 kg/ha)
7 (7 - Good herbicidal effect): IPOHE rating ([4]; dose 0.4 kg/ha) | SOLNI rating ([14]; dose 0.03 kg/ha) | ALOMY rating ([19]; dose 0.1 kg/ha) | GLXMA rating ([22]; dose 0.03 kg/ha) | GALAP rating ([23]; dose 0.1 kg/ha)
8 (8 - Approaching complete kill): MATIN rating ([1]; dose 0.1 kg/ha) | LAMPU rating ([3]; dose 0.03 kg/ha) | LAMPU rating ([3]; dose 0.1 kg/ha) | LAMPU rating ([3]; dose 0.4 kg/ha) | AMBEL rating ([5]; dose 0.1 kg/ha) | LAMPU rating ([9]; dose 0.013 kg/ha) | LAMPU rating ([9]; dose 0.025 kg/ha) | AMBEL rating ([10]; dose 0.4 kg/ha) | SOLNI rating ([14]; dose 0.1 kg/ha) | SOLNI rating ([14]; dose 0.4 kg/ha) | ABUTH rating ([18]; dose 0.03 kg/ha) | ABUTH rating ([18]; dose 0.1 kg/ha) | SOLNI rating ([20]; dose 0.1 kg/ha) | IPOHE rating ([21]; dose 0.03 kg/ha) | GLXMA rating ([22]; dose 0.1 kg/ha) | GLXMA rating ([22]; dose 0.4 kg/ha) | ECHCG rating ([24]; dose 0.1 kg/ha) | MATIN rating ([25]; dose 0.1 kg/ha) | STEME rating ([26]; dose 0.4 kg/ha)
0 (0 - No effect): TRZAW rating ([8]; dose 0.013 kg/ha) | TRZAW rating ([8]; dose 0.025 kg/ha) | HORVW rating ([13]; dose 0.013 kg/ha) | HORVW rating ([13]; dose 0.025 kg/ha) | GLXMA rating ([15]; dose 0.013 kg/ha) | GALAP rating ([16]; dose 0.013 kg/ha) | GALAP rating ([16]; dose 0.025 kg/ha) | ORYSA rating ([17]; dose 0.013 kg/ha) | SOLNI rating ([20]; dose 0.013 kg/ha) | ECHCG rating ([24]; dose 0.013 kg/ha)
4 (4 - Injury): MATIN rating ([1]; dose 0.013 kg/ha) | ABUTH rating ([11]; dose 0.025 kg/ha) | ZEAMX rating ([12]; dose 0.1 kg/ha) | GLXMA rating ([15]; dose 0.4 kg/ha) | STEME rating ([26]; dose 0.03 kg/ha)
2 (2 - Slight effect): TRZAW rating ([2]; dose 0.03 kg/ha) | ORYSA rating ([7]; dose 0.03 kg/ha) | ZEAMX rating ([12]; dose 0.03 kg/ha) | GALAP rating ([16]; dose 0.1 kg/ha) | ORYSA rating ([17]; dose 0.1 kg/ha) | ECHCG rating ([24]; dose 0.025 kg/ha)
5 (5 - Definite injury): SETVI rating ([6]; dose 0.013 kg/ha) | AMBEL rating ([10]; dose 0.03 kg/ha) | ZEAMX rating ([12]; dose 0.4 kg/ha) | HORVW rating ([13]; dose 0.4 kg/ha) | GALAP rating ([23]; dose 0.03 kg/ha)
9 (9 - Complete kill): MATIN rating ([1]; dose 0.4 kg/ha) | AMBEL rating ([5]; dose 0.4 kg/ha) | SETVI rating ([6]; dose 0.1 kg/ha) | SETVI rating ([6]; dose 0.4 kg/ha) | LAMPU rating ([9]; dose 0.1 kg/ha) | LAMPU rating ([9]; dose 0.4 kg/ha) | ABUTH rating ([11]; dose 0.4 kg/ha) | GALAP rating ([16]; dose 0.4 kg/ha) | ABUTH rating ([18]; dose 0.4 kg/ha) | ALOMY rating ([19]; dose 0.4 kg/ha) | SOLNI rating ([20]; dose 0.4 kg/ha) | IPOHE rating ([21]; dose 0.1 kg/ha) | IPOHE rating ([21]; dose 0.4 kg/ha) | GALAP rating ([23]; dose 0.4 kg/ha) | ECHCG rating ([24]; dose 0.4 kg/ha) | MATIN rating ([25]; dose 0.4 kg/ha)
6 (6 - Herbicidal effect): MATIN rating ([1]; dose 0.025 kg/ha) | SETVI rating ([6]; dose 0.025 kg/ha) | AMBEL rating ([10]; dose 0.1 kg/ha) | ABUTH rating ([11]; dose 0.1 kg/ha) | MATIN rating ([25]; dose 0.03 kg/ha) | STEME rating ([26]; dose 0.1 kg/ha)
